# Key:
# JAK2 = JAK2 (Homo sapiens, UniProt O60674); assay: JAK LanthaScreen Kinase Assay (TR-FRET), JAK2 in vitro enzyme assay; format: biochemical; design: purchased Invitrogen; conditions: ATP 5 μM; n=6
# Description: (§1) JAK1, JAK2 and JAK3 In Vitro Enzyme Assays
# (§2) The JAK LanthaScreen™ Kinase Assay (Invitrogen) is used to determine the ability of test compounds to inhibit JAK1, JAK2 and JAK3 kinase activity. These are TR-FRET assay formats that use long-lifetime terbium labeled antibody as the donor species and GFP-STAT1 as the acceptor species. Use the TR-FRET ratio to monitor JAK kinase activity where an increase in phosphorylation of the GFP-STAT1 results in an increase in the TR-FRET ratio. Perform the kinase reaction using a 12.5 μl reaction volume in shallow black 384-well Proxiplate. Add reagents to obtain final reaction conditions of […] HEPES pH, 1.76 mM Triton X-100, ATP (20.0 μM for JAK1 and JAK3 or 5 μM for JAK2) enzyme assays, 10.0 mM MgCl2, 1 mM EGTA and 0.01% Brij-35, 0.05 mM GFP-STAT1, 14 nM JAK1 enzyme for JAK1, 1.0 nM for JAK2 or 2.5 nM for JAK3 enzyme assays, and 4% DMSO and serial dilutions of test compound (diluted 1:3 from 20,000 to 1 nM). Following ATP/GFP-STAT1 addition, centrifuge the assay plates for 1 minute at 1000 revolutions per minute (RPM). Allow the plates to incubate at RT for 60 minutes and then add 12.5 μl of a stopping buffer containing 20 mM EDTA, 2 nM Terbium-anti-phosphorylated Signal Transducers and Activators of Transcription [phosphorylation Tyrosine 701 amino acid] […]
# JAK3 = target: T1, JAK3 (Homo sapiens, UniProt P52333); assay: JAK LanthaScreen Kinase Assay (TR-FRET), JAK3 in vitro enzyme assay; format: biochemical; conditions: ATP 20.0 μM; n=6
# T1 construct: purchased Invitrogen
# T1 sequence (P52333 1-1124): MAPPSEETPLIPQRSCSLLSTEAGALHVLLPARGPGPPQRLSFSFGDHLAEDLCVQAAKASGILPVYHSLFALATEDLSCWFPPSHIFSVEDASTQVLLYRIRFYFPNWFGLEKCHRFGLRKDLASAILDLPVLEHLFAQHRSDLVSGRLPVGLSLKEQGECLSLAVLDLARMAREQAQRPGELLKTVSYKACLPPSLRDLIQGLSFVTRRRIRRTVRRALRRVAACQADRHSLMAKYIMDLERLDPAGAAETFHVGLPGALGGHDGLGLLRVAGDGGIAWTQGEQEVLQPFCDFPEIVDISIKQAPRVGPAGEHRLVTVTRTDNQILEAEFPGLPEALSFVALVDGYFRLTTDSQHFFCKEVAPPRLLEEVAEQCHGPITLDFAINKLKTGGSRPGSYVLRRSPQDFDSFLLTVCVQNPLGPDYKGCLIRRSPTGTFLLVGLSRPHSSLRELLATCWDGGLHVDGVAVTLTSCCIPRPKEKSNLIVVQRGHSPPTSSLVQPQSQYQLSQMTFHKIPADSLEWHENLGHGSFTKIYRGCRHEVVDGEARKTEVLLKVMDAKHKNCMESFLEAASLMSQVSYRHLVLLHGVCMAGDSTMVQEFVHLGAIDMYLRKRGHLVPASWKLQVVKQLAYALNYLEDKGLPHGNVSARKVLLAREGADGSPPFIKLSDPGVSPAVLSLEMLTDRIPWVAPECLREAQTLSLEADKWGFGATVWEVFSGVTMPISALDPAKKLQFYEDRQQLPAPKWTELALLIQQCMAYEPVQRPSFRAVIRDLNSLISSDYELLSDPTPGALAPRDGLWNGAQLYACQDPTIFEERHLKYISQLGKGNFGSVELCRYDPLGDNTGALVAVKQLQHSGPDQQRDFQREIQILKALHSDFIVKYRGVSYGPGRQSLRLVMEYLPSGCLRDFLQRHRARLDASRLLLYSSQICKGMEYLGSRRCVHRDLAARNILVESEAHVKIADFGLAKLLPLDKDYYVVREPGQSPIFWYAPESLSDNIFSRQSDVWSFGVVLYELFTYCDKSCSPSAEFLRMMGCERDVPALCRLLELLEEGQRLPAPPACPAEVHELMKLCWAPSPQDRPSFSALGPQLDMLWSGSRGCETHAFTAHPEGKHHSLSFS
# Description: as §1, §2
# JAK2, sequence (O60674 whole entry): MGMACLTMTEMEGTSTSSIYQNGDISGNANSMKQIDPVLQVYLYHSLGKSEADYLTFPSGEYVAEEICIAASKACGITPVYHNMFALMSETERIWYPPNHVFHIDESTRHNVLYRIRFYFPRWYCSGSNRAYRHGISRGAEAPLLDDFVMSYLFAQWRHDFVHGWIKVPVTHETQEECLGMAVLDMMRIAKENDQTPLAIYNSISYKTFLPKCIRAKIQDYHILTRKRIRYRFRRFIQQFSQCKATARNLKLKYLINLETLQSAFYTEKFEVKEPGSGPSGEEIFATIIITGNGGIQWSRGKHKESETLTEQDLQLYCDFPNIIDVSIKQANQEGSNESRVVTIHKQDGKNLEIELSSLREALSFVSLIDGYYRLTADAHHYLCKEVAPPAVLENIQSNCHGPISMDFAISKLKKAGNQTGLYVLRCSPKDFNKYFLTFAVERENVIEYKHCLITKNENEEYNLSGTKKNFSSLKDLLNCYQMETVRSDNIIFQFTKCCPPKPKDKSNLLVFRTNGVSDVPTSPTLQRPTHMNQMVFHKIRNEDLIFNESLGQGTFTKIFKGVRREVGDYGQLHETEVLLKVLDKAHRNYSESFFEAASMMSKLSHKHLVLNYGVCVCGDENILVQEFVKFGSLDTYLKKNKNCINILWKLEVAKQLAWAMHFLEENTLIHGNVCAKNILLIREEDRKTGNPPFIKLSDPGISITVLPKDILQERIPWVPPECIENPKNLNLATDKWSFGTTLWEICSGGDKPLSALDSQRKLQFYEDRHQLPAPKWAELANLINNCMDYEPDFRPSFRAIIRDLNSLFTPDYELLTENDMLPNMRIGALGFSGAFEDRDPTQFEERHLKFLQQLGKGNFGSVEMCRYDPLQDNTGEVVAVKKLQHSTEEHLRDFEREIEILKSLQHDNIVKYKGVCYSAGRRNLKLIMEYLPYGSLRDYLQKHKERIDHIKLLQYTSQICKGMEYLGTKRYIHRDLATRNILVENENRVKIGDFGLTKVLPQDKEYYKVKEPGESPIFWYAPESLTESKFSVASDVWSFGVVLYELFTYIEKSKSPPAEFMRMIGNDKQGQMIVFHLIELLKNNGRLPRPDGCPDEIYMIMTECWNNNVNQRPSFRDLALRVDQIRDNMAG
smiles,measurement,setting,value
"Cc1cc(Nc2cc(O[C@H]3CC[C@@H](NC[C@@H](O)C(F)(F)F)CC3)cc3c2ncn3C)nn1C [Example 1, (2R)-3-{[cis-4-({4-[(1,5-Dimethyl-1H-pyrazol-3-yl)amino]-1-methyl-1H-benzimidazol-6-yl}oxy)cyclohexyl]amino}-1,1,1-trifluoropropan-2-ol]",IC50,JAK2,557 ± 337 nM
same,IC50,JAK3,1910 ± 786 nM

# Source: patent US9556153B1, “JAK1 inhibitors” (Eli Lilly and Company, priority 2015, dated 2017)
